The results in this text go back to PubChem BioAssay (NCI).

This test has as its system MDA-MB-468 breast. Description: growth of human tumour cells (NCI), 48 h.

“And” between values parts separate entries of the source, which are not always exact repeats. Equal values may be shown once.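 Method: 48-hour compound exposure of cells in 96-well plates, five concentrations, linear interpolation of endpoints. GI50 is the concentration that inhibits growth by half. TGI marks complete inhibition of growth.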

For the compound `Cn1cc(C2=C(c3cn(C)c4ccc(N)cc34)C(=O)NC2=O)c2ccccc21`, the GI50 is 7350 nM and the TGI was more than 25000 nM.

As to `CCNCCCn1c2c(c3cc(OC)c(OC)cc3c1=O)C(=O)c1cc(OC)cnc1-2`, the GI50 is 310 nM and the TGI turned out to be 1440 nM.

`COc1ccc(-c2cc(-c3ccc(Cl)cc3)c(C#N)c(=O)n2CCCCC(=O)Nc2ccccc2N)cc1`: the GI50 was 5680 nM and the TGI was determined as 67500 nM.

Regarding `C[n+]1cc2c3c(ccc2c2ccc4cc5c(cc4c21)OCO5)OCO3`, the GI50 was 1050 nM and the TGI worked out at 2480 nM.

On to `CCN(c1ccc(CO)c(Cl)c1)C(C)c1ccc(F)cc1` (stereo not given), for which the GI50 was 640 nM and the TGI was determined as 5260 nM.

On to `COc1cc(/C=C2\CN(C)CC3=C2Nc2nc(SC)[nH]c(=O)c2C3c2cc(OC)c(OC)c(OC)c2)cc(OC)c1OC` (stereo not given), for which the GI50 was 2200 nM and the TGI came to 10600 nM.

As to `Cc1ccc(C(=O)Nc2ccc(CN3CCN(C)CC3)c(C(F)(F)F)c2)cc1C#Cc1cnc(N)c2ccc(F)cc12`, the GI50 was 359 nM and the TGI came out at 1190 nM.

Consider `CC[C@H](C)[C@H](NC(=O)c1cnccn1)C(=O)N(C)[C@H](C[C@@H](OC(C)=O)c1nc(C(=O)N[C@@H](Cc2ccccc2)C[C@H](C)C(=O)OC)cs1)C(C)C`, for which the GI50 is 595 nM and the TGI worked out at 29800 nM.

As for `NS(=O)(=O)c1ccc(N2Cc3cc(Cl)ccc3OC3=C2C(=O)N(CC2CCCCC2)C3=O)cc1`, the GI50 was 962 nM and the TGI came to 2730 nM.

Consider `CS(=O)(=O)c1ccc(Cl)c([N+](=O)[O-])c1`, for which the GI50 was 1600 nM and the TGI came to 3470 nM.

Turning to `Cc1cc(N(CCNc2ccnc3cc(Cl)ccc23)Cc2ccc3c(c2)OCO3)nc(N2CCN(C)CC2)n1`, the GI50 was 1870 nM and the TGI stood at 4020 nM.

For the compound `N/C(=N\OC(=O)c1ccccc1)C(C(=O)NOC(=O)c1ccccc1)C1CCCCC1` (stereo not given), the GI50 is 13300 nM and the TGI came out at 29400 nM.

Consider `COc1ccc(C(=O)N2c3ccccc3Sc3ccccc32)c(F)c1`, for which the GI50 is 413 nM and the TGI is more than 100000 nM.

For `COc1ccc(Cl)cc1Nc1nc(C(F)(F)F)ccc1C(=O)NN`, the GI50 was 3880 nM and the TGI is more than 85900 nM.

Take `Cc1ccc(C(=O)/C(=C/c2ccc([N+](=O)[O-])cc2)S(=O)Cc2ccccc2)cc1` (stereo not given): the GI50 was 1710 nM and the TGI came out at 4070 nM.

Regarding `N=C(N)c1ccc(-c2ccc(-c3ccc(Cl)cc3Cl)o2)cc1`, the GI50 is 1940 nM and the TGI was 3680 nM.

Consider `CC(C)n1c(/C=C/[C@@H](O)C[C@@H](O)CC(=O)O)c(-c2ccc(F)cc2)c2ccccc21`, for which the GI50 was 5720 nM and 2550 nM; the TGI is more than 100000 nM.

`Cc1cccc(NC(=O)c2sc3nc4c(cc3c2N)CCCC4)c1C`: the GI50 is 339 nM and the TGI was more than 100000 nM.

For `Clc1ccc(COC(Cn2ccnc2)c2ccc(Cl)cc2Cl)cc1` (stereo not given), the GI50 is 2020 nM and the TGI was determined as 6810 nM.

On to `CCN1CCN(Cc2ccc(NC(=O)Nc3ccc(-n4ccc5c(NC(=O)c6ccccc6)nccc54)cc3)cc2C(F)(F)F)CC1`, for which the GI50 is 1770 nM and the TGI is 3300 nM.

In the case of `COc1cc(Nc2ccnc(N3CCN(c4ccnc5cc(Cl)ccc45)CC3)n2)cc(OC)c1`, the GI50 was 832 nM and the TGI is more than 84900 nM.

Regarding `COc1cc(-c2csc(NC(=O)c3cc(C(F)(F)F)cc(C(F)(F)F)c3)n2)cc(OC)c1OC`, the GI50 is 1640 nM and the TGI was 7020 nM.

As to `S=C(N/N=C/c1cc(Cl)cc(Cl)c1)NC12CC3CC(CC(C3)C1)C2`, the GI50 is 16800 nM and the TGI is more than 100000 nM.

`O=C(Nc1ccc(OC(F)(F)F)cc1)c1sccc1NCc1ccnc2ccccc12`: the GI50 is 1520 nM and the TGI stood at 19800 nM.

Turning to `Fc1cccc(COc2ccc(Nc3ncnc4sc(-c5ccco5)cc34)cc2Cl)c1`, the GI50 was more than 17700 nM and the TGI was more than 25000 nM.

Turning to `CCOC(=O)c1c(NC(=O)c2ccc(C(C)C)cc2)sc2c(CN(C)C)c(O)ccc12`, the GI50 is 1880 nM and the TGI worked out at 4090 nM.

With `C[C@]12CC[C@@H]3c4ccc(O)c([N+](=O)[O-])c4CC[C@H]3[C@@H]1CC[C@@H]2NS(=O)(=O)c1ccc(C(F)(F)F)cc1`, the GI50 was 2180 nM and the TGI came to 6290 nM.

For the compound `C#Cc1nc(/C=C/C(=O)NO)cs1`, the GI50 is 1110 nM and the TGI turned out to be 4160 nM.

Consider `CCN(CCCCCCCCCCN1CC(=O)N(CCCCCCCCCCN(CC)Cc2ccccc2OC)CC1=O)Cc1ccccc1OC`, for which the GI50 is 1110 nM and the TGI is 2500 nM.

Regarding `CNC(=O)Nc1ccc(-c2nc(N3CCOCC3)nc3c2cnn3C2CCOCC2)cc1`, the GI50 was 151 nM and the TGI is 936 nM.

On to `CC1=CC(=O)CC(C)(C)[C@@]1(O)/C=C/C(C)=C\C(=O)O`, for which the GI50 was 116 nM and the TGI turned out to be 308 nM.

For the compound `COC(=O)c1ccc2c(c1)C(NC(C)=O)CCc1cc(OC)c(OC)c(OC)c1-2` (stereo not given), the GI50 is 18.4 nM and the TGI is more than 100000 nM.

As for `CN1CCCN(CCNc2nccc(-c3c(-c4cccc(O)c4)nc4sccn34)n2)S1(=O)=O`, the GI50 is 9050 nM and 10700 nM; the TGI is 24100 nM and 53000 nM.

For `CC1(C)N=C(N)N=C(N)N1c1ccc(CCc2ccccc2)c(Cl)c1`, the GI50 is 55.5 nM and the TGI was 1340 nM.

On to `C#C[C@]1(O)CC[C@H]2[C@@H]3CC=C4c5nc(Nc6ccccn6)sc5CC[C@]4(C)[C@H]3CC[C@@]21C`, for which the GI50 is 1620 nM and the TGI stood at 5150 nM.
